Measurements from patent publication US8487102B2, “Pyrrazolopyridine compounds as dual NK1/NK3 receptor antagonists” (Hoffmann-La Roche Inc., priority 2010, dated 2013).

Tests used:
human NK1 receptor = target: T1, human NK1 receptor (Homo sapiens, UniProt P25103); test: NK1 receptor binding assay, [3H]substance P displacement; settings: human NK1 receptors in CHO cells, [3H]substance P 0.6 nM
T1 construct: expressed in transfected cells; host or cells: CHO cells (Semliki virus expression system), membrane suspension
T1 sequence (P25103 whole entry): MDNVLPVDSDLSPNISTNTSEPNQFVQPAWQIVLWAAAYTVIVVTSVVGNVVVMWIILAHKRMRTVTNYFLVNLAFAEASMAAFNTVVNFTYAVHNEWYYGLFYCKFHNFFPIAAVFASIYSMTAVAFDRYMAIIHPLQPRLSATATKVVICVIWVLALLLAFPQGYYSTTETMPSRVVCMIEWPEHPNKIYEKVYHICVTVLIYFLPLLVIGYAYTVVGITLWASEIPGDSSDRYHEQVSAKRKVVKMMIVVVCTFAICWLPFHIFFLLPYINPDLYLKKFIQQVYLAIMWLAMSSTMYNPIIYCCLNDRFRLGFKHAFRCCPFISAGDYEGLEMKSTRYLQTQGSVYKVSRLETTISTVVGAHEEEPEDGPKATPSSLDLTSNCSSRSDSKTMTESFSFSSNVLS

[1] = target: T2, Recombinant human NK3 (hNK3) receptor (Homo sapiens, UniProt P29371); test: NK3 receptor binding assay, [3H]SR142801 displacement; settings: hNK3 receptor membranes, [3H]SR142801 0.3 nM
T2 construct: expressed in transfected cells; membrane preparations of the recombinant receptor
T2 sequence (P29371 1-465): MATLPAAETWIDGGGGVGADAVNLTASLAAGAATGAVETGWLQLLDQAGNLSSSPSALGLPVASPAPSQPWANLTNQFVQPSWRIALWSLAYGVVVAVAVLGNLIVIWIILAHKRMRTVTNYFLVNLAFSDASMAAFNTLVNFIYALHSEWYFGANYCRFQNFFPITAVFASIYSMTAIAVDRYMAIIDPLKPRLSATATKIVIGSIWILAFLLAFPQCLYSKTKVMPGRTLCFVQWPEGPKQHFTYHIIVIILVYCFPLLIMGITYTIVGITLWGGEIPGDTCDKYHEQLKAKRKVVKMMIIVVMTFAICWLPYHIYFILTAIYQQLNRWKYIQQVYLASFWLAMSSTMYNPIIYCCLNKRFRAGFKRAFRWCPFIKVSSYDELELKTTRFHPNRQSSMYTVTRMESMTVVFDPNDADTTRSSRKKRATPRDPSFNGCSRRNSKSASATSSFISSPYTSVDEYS
Procedure: Recombinant human NK3 (hNK3) receptor affinity was determined in a 96 well plate assay, using [^3H]SR142801 (final concentration 0.3 nM) to radiolabel the hNK3 receptor in the presence of 10 concentrations of competing compound or buffer. Non specific binding was determined using 10 μM SB222200. Assay buffer consisted of Tris-HCl (50 mM, pH 7.4), BSA (0.1%), MnCl2 (4 mM) and phosphoramidon (1 μM). Membrane preparations of hNK3 receptors (approximately 2.5 μg/well in a 96 well plate) were used to initiate the incubation for 90 min at room temperature. This assay was terminated by rapid filtration under vacuum through GF/C filters, presoaked for 90 min with PEI (0.3%), with 3×0.5 ml washes of ice-cold Tris buffer (50 mM, pH 7.4) containing 0.1% BSA. The radioactivity retained on the filters was measured by scintillation counting. All assays were performed in duplicate in at least two separate experiments.

Structure (SMILES) | Ki (human NK1 receptor) | Ki [1]
CCn1ncc2c(-c3ccccc3Cl)c(N(C)C(=O)C(C)(C)c3cc(C(F)(F)F)cc(C(F)(F)F)c3)cnc21 [Example 3, 2-(3,5-Bis-trifluoromethyl-phenyl)-N-[4-(2-chloro-phenyl)-1-ethyl-1H-pyrazolo[3,4-b]pyridin-5-yl]-N-methyl-isobutyramide] | 0.6 nM | 22.9 nM
CCn1ncc2c(-c3ccc(Cl)c(Cl)c3)c(N(C)C(=O)C(C)(C)c3cc(C(F)(F)F)cc(C(F)(F)F)c3)cnc21 [Example 4, 2-(3,5-Bis-trifluoromethyl-phenyl)-N-[4-(3,4-dichloro-phenyl)-1-ethyl-1H-pyrazolo[3,4-b]pyridin-5-yl]-N-methyl-isobutyramide] | 0.4 nM | 86.8 nM
CCn1ncc2c(-c3ccc(F)cc3C)c(NC(=O)C(C)(C)c3cc(C(F)(F)F)cc(C(F)(F)F)c3)cnc21 [Example 5, 2-(3,5-Bis-trifluoromethyl-phenyl)-N-[1-ethyl-4-(4-fluoro-2-methyl-phenyl)-1H-pyrazolo[3,4-b]pyridin-5-yl]-isobutyramide] | 6 nM | 200 nM
Cc1cc(F)ccc1-c1c(N(C)C(=O)C(C)(C)c2cc(C(F)(F)F)cc(C(F)(F)F)c2)cnc2c1cnn2CC(F)F [Example 6, 2-(3,5-Bis-trifluoromethyl-phenyl)-N-[1-(2,2-difluoro-ethyl)-4-(4-fluoro-2-methyl-phenyl)-1H-pyrazolo[3,4-b]pyridin-5-yl]-N-methyl-isobutyramide] | 0.9 nM | 6.8 nM
CCn1ncc2c(-c3ccc(F)cc3F)c(N(C)C(=O)C(C)(C)c3cc(C(F)(F)F)cc(C(F)(F)F)c3)cnc21 [Example 8, 2-(3,5-Bis-trifluoromethyl-phenyl)-N-[4-(2,4-difluoro-phenyl)-1-ethyl-1H-pyrazolo[3,4-b]pyridin-5-yl]-N-methyl-isobutyramide] | 1.7 nM | 483 nM
Cc1cc(F)ccc1-c1c(N(C)C(=O)C(C)(C)c2cc(C(F)(F)F)cc(C(F)(F)F)c2)cnc2c1cnn2Cc1ccccc1 [Example 11, N-[1-Benzyl-4-(4-fluoro-2-methyl-phenyl)-1H-pyrazolo[3,4-b]pyridin-5-yl]-2-(3,5-bis-trifluoromethyl-phenyl)-N-methyl-isobutyramide] | 1.3 nM | 77 nM
CCn1ncc2c(-c3cc(F)ccc3C)c(N(C)C(=O)C(C)(C)c3cc(C(F)(F)F)cc(C(F)(F)F)c3)cnc21 [Example 13, 2-(3,5-Bis-trifluoromethyl-phenyl)-N-[1-ethyl-4-(5-fluoro-2-methyl-phenyl)-1H-pyrazolo[3,4-b]pyridin-5-yl]-N-methyl-isobutyramide] | 7.9 nM | 160 nM
CCn1ncc2c(-c3ccc(OC)cc3C)c(N(C)C(=O)C(C)(C)c3cc(C(F)(F)F)cc(C(F)(F)F)c3)cnc21 [Example 16, 2-(3,5-Bis-trifluoromethyl-phenyl)-N-[1-ethyl-4-(4-methoxy-2-methyl-phenyl)-1H-pyrazolo[3,4-b]pyridin-5-yl]-N-methyl-isobutyramide] | 8.6 nM | 373 nM
CCn1ncc2c(-c3cccc(Cl)c3)c(N(C)C(=O)C(C)(C)c3cc(C(F)(F)F)cc(C(F)(F)F)c3)cnc21 [Example 17, 2-(3,5-Bis-trifluoromethyl-phenyl)-N-[4-(3-chloro-phenyl)-1-ethyl-1H-pyrazolo[3,4-b]pyridin-5-yl]-N-methyl-isobutyramide] | 4.2 nM | 355 nM
CCn1ncc2c(-c3ccccc3CO)c(N(C)C(=O)C(C)(C)c3cc(C(F)(F)F)cc(C(F)(F)F)c3)cnc21 [Example 20, 2-(3,5-Bis-trifluoromethyl-phenyl)-N-[1-ethyl-4-(2-hydroxymethyl-phenyl)-1H-pyrazolo[3,4-b]pyridin-5-yl]-N-methyl-isobutyramide] | 1.6 nM | 209 nM
CCn1ncc2c(-c3cccnc3C)c(N(C)C(=O)C(C)(C)c3cc(C(F)(F)F)cc(C(F)(F)F)c3)cnc21 [Example 25, 2-(3,5-Bis-trifluoromethyl-phenyl)-N-[1-ethyl-4-(2-methyl-pyridin-3-yl)-1H-pyrazolo[3,4-b]pyridin-5-yl]-N-methyl-isobutyramide] | 522 nM | 
Cc1cc(F)ccc1-c1c(N(C)C(=O)C(C)(C)c2cc(C(F)(F)F)cc(C(F)(F)F)c2)cnc2c1cnn2CC(=O)N1CCCC1 [Example 34, 2-(3,5-Bis-trifluoromethyl-phenyl)-N-[4-(4-fluoro-2-methyl-phenyl)-1-(2-oxo-2-pyrrolidin-1-yl-ethyl)-1H-pyrazolo[3,4-b]pyridin-5-yl]-N-methyl-isobutyramide] |  | 39.5 nM
Cc1cc(F)ccc1-c1c(N(C)C(=O)C(C)(C)c2cc(C(F)(F)F)cc(C(F)(F)F)c2)cnc2c1cnn2CC(=O)N(C)C [Example 35, 2-(3,5-Bis-trifluoromethyl-phenyl)-N-[1-dimethylcarbamoylmethyl-4-(4-fluoro-2-methyl-phenyl)-1H-pyrazolo[3,4-b]pyridin-5-yl]-N-methyl-isobutyramide] |  | 93.9 nM

Continued by falling Ki [1], values first:

Ki (human NK1 receptor) | Ki [1] | Structure (SMILES)
10.2 nM | 779 nM | CCn1ncc2c(-c3cccc(F)c3F)c(N(C)C(=O)C(C)(C)c3cc(C(F)(F)F)cc(C(F)(F)F)c3)cnc21 [Example 9, 22-(3,5-Bis-trifluoromethyl-phenyl)-N-[4-(2,3-difluoro-phenyl)-1-ethyl-1H-pyrazolo[3,4-b]pyridin-5-yl]-N-methyl-isobutyramide]
2.5 nM | 532 nM | CCn1ncc2c(-c3ccccc3)c(N(C)C(=O)C(C)(C)c3cc(C(F)(F)F)cc(C(F)(F)F)c3)cnc21 [Example 10, 2-(3,5-Bis-trifluoromethyl-phenyl)-N-(1-ethyl-4-phenyl-1H-pyrazolo[3,4-b]pyridin-5-yl)-N-methyl-isobutyramide]
0.7 nM | 208 nM | CCn1ncc2c(-c3ccccc3OC)c(N(C)C(=O)C(C)(C)c3cc(C(F)(F)F)cc(C(F)(F)F)c3)cnc21 [Example 15, 2-(3,5-Bis-trifluoromethyl-phenyl)-N-[1-ethyl-4-(2-methoxy-phenyl)-1H-pyrazolo[3,4-b]pyridin-5-yl]-N-methyl-isobutyramide]
 | 45.3 nM | CCn1ncc2c(-c3cccc(Cl)c3Cl)c(N(C)C(=O)C(C)(C)c3cc(C(F)(F)F)cc(C(F)(F)F)c3)cnc21 [Example 18, 2-(3,5-Bis-trifluoromethyl-phenyl)-N-[4-(2,3-dichloro-phenyl)-1-ethyl-1H-pyrazolo[3,4-b]pyridin-5-yl]-N-methyl-isobutyramide]
0.7 nM | 41.4 nM | CCn1ncc2c(-c3ccc(F)cc3OC)c(N(C)C(=O)C(C)(C)c3cc(C(F)(F)F)cc(C(F)(F)F)c3)cnc21 [Example 12, 2-(3,5-Bis-trifluoromethyl-phenyl)-N-[1-ethyl-4-(4-fluoro-2-methoxy-phenyl)-1H-pyrazolo[3,4-b]pyridin-5-yl]-N-methyl-isobutyramide]
1.6 nM | 38.7 nM | CCn1ncc2c(-c3cccc(F)c3Cl)c(N(C)C(=O)C(C)(C)c3cc(C(F)(F)F)cc(C(F)(F)F)c3)cnc21 [Example 14, 2-(3,5-Bis-trifluoromethyl-phenyl)-N-[4-(2-chloro-3-fluoro-phenyl)-1-ethyl-1H-pyrazolo[3,4-b]pyridin-5-yl]-N-methyl-isobutyramide]
1.2 nM | 32.7 nM | CCn1ncc2c(-c3ccccc3C)c(N(C)C(=O)C(C)(C)c3cc(C(F)(F)F)cc(C(F)(F)F)c3)cnc21 [Example 1, 2-(3,5-Bis-trifluoromethyl-phenyl)-N-(1-ethyl-4-o-tolyl-1H-pyrazolo[3,4-b]pyridin-5-yl)-N-methyl-isobutyramide]
1.1 nM | 25.7 nM | CCn1ncc2c(-c3ccc(F)cc3C)c(N(C)C(=O)C(C)(C)c3cc(C(F)(F)F)cc(C(F)(F)F)c3)cnc21 [Example 2, 2-(3,5-Bis-trifluoromethyl-phenyl)-N-[1-ethyl-4-(4-fluoro-2-methyl-phenyl)-1H-pyrazolo[3,4-b]pyridin-5-yl]-N-methyl-isobutyramide]
0.8 nM | 18.9 nM | Cc1cc(F)ccc1-c1c(N(C)C(=O)C(C)(C)c2cc(C(F)(F)F)cc(C(F)(F)F)c2)cnc2c1cnn2C [Example 7, 2-(3,5-Bis-trifluoromethyl-phenyl)-N-[4-(4-fluoro-2-methyl-phenyl)-1-methyl-1H-pyrazolo[3,4-b]pyridin-5-yl]-N-methyl-isobutyramide]
0.3 nM | 13.8 nM | CCn1ncc2c(-c3ccc(F)cc3Cl)c(N(C)C(=O)C(C)(C)c3cc(C(F)(F)F)cc(C(F)(F)F)c3)cnc21 [Example 19, 2-(3,5-Bis-trifluoromethyl-phenyl)-N-[4-(2-chloro-4-fluoro-phenyl)-1-ethyl-1H-pyrazolo[3,4-b]pyridin-5-yl]-N-methyl-isobutyramide]
